# Source: US10975068B2, “6-aminopyridin-3-yl thiazoles as modulators of RORγT” (Janssen Pharmaceutica NV, priority 2016, dated 2021)
# Like-named read-outs stand apart in the source and are kept apart here. Marks after values point to notes of the source that are not given here.
# Experiments:
# [1] = target: human RORγt ligand binding domain (RORγt LBD) (Homo sapiens (Human), UniProt P51449); assay: RORγt ThermoFluor® assay (thermal shift binding); settings: read-out: ThermoFluor® Assay, Kd
# Summary of the method: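 His-tagged human RORγt LBD (0.065 mg/mL) with 60 μM 1,8-ANS in 100 mM Hepes pH 7.0, 10 mM NaCl, 2.5 mM GSH, 0.002% Tween-20 was heated at 1 °C/min.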
# full-length human RORγt = full-length human RORγt (Homo sapiens (Human), UniProt P51449); assay: RORγt (full-length human) reporter assay, Conditions B or C; type: cell-based; settings: for RORγt (FL) Reporter Assay B or C, % inhibition (value marked *): marked *: footnote not given
# full-length human RORγt, sequence (P51449 other isoform, or with tags, fused parts or gaps): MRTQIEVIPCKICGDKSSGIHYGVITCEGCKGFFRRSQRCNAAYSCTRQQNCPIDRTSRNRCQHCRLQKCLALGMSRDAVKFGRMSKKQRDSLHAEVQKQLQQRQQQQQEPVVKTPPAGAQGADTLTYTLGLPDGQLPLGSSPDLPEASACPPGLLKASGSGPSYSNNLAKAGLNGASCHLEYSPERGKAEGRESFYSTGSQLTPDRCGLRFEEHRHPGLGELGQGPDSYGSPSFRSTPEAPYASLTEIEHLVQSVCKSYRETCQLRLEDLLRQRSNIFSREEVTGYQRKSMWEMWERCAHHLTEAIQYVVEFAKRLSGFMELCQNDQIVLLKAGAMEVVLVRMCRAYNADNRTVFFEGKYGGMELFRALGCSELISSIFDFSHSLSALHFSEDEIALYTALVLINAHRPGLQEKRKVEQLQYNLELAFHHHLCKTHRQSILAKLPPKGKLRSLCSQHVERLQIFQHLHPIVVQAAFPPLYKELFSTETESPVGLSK
# Summary of the method: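 HEK293T cells transiently co-transfected with GAL4-DBD–full-length human RORγt (nt 142-1635, NM_001001523.1) plus GAL4-firefly and CMV-Renilla luciferase reporters; compounds added 4-6 h post-transfection for 16-20 h in 1.3% FBS, 0.1% DMSO. Firefly signal normalized to DMSO and saturating reference compound, then to Renilla; IC50 from concentration plots.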
# [2] = Conditions B or C, read-out: RORγt (FL) Reporter Assay B or C, IC50
# [3] = at 3 μM compound concentration, read-out: RORγt (FL) Reporter Assay B or C, % inhibition
# [4] = read-out: RORγt (FL) Reporter Assay B or C, IC50
# human RORγt ligand binding domain (RORγt LBD), sequence (P51449 other isoform, or with tags, fused parts or gaps): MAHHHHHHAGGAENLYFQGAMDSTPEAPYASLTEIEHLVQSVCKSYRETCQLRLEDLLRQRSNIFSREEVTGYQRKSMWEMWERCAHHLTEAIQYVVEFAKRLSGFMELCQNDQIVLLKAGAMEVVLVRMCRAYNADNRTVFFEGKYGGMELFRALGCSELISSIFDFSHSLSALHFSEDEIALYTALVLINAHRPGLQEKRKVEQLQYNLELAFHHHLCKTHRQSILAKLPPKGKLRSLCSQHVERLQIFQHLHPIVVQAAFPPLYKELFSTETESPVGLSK
Compound,Kd [1] [nM],"RORγt (FL) Reporter Assay B or C, % inhibition (value marked *) (full-length human RORγt; Conditions B or C)",IC50 (full-length human RORγt; [2]) [µM],inhibition at 3 µM (full-length human RORγt; [3]) [%],IC50 (full-length human RORγt; [4]) [µM],other results
CC[C@@H](Nc1cc(C(F)F)c(-c2sc(C(=O)NCC(C)(C)O)nc2C(=O)N2C3CCC2CC3)cn1)C1CC1 (stereo in doubt) [Example 164],4.6,105* %,0.023,,,
"CC[C@H](Nc1cc(C(F)F)c(-c2sc(C(=O)N[C@H](C)C(C)(C)O)nc2C(=O)N2C3CCC2CC3)cn1)C(F)(F)F [Example 242, 4-((1s,4s)-7-Azabicyclo[2.2.1]heptane-7-carbonyl)-5-[4-(difluoromethyl)-6-[[(1S)-1-(trifluoromethyl)propyl]amino]-3-pyridyl]-N-[(1R)-2-hydroxy-1,2-dimethyl-propyl]thiazole-2-carboxamide]",2.8,86* %,0.015,,,
"C[C@H]1CCCN1C(=O)c1nc(C(=O)N2CC3(COC3)C2)sc1-c1cnc(NC(C)(C)C)cc1C(F)(F)F [Example 368, [5-[6-(tert-Butylamino)-4-(trifluoromethyl)-3-pyridyl]-2-(6-oxa-2-azaspiro[3.3]heptane-2-carbonyl)thiazol-4-yl]-[(2S)-2-methylpyrrolidin-1-yl]methanone]",1.7,,,110,0.0075,
"C[C@H](NC(=O)c1nc(C(=O)N2CCC[C@@H]2C)c(-c2cnc(NCC(C)(C)C)cc2C(F)F)s1)C(C)(C)O [Example 344, 5-[4-(Difluoromethyl)-6-(2,2-dimethylpropylamino)-3-pyridyl]-N-[(1S)-2-hydroxy-1,2-dimethyl-propyl]-4-[(2S)-2-methylpyrrolidine-1-carbonyl]thiazole-2-carboxamide]",3.2,,,,0.0053,"inhibition at 0.33 µM (full-length human RORγt; at 0.33 μM compound concentration, read-out: RORγt (FL) Reporter Assay B or C, % inhibition): 53%"
"C[C@H]1CCCN1C(=O)c1nc(C(=O)NCC(C)(C)O)sc1-c1cnc(NC(C)(C)C)cc1C(F)F [Example 265, 5-[6-(tert-Butylamino)-4-(difluoromethyl)-3-pyridyl]-N-(2-hydroxy-2-methyl-propyl)-4-[(2S)-2-methylpyrrolidine-1-carbonyl]thiazole-2-carboxamide]",6.4,,,98,0.075,
"CC[C@H](Nc1cc(C(F)F)c(-c2sc(C(=O)N[C@@H]3CC[C@@H](O)C3)nc2C(=O)N2CCC[C@@H]2C)cn1)C(F)(F)F [Example 399, 5-[4-(Difluoromethyl)-6-[[(1S)-1-(trifluoromethyl)propyl]amino]-3-pyridyl]-N-[(1R,3R)-3-hydroxycyclopentyl]-4-[(2S)-2-methylpyrrolidine-1-carbonyl]thiazole-2-carboxamide]",1.2,,,100,0.025,
"CCC(C)(C)Nc1cc(C(F)(F)F)c(-c2sc(C(=O)NCC(C)(C)O)nc2C(=O)N2CC(F)(F)C[C@@H]2C)cn1 [Example 103, (S)-4-(4,4-Difluoro-2-methylpyrrolidine-1-carbonyl)-N-(2-hydroxy-2-methylpropyl)-5-(6-(tert-pentylamino)-4-(trifluoromethyl)pyridin-3-yl)thiazole-2-carboxamide]",0.26,110* %,0.0039,,,
"CC[C@H](Nc1cc(C(F)(F)F)c(-c2sc(C(=O)NCC(C)(C)O)nc2C(=O)N2C3CCC2CC3)cn1)C(F)(F)F [Example 101, 4-((1s,4s)-7-Azabicyclo[2.2.1]heptane-7-carbonyl)-N-(2-hydroxy-2-methylpropyl)-5-(6-(((S)-1,1,1-trifluorobutan-2-yl)amino)-4-(trifluoromethyl)pyridin-3-yl)thiazole-2-carboxamide]",3.2,107* %,,,,"IC50 (full-length human RORγt; RORγt (FL) Reporter Assay B or C, IC50 (μM), Conditions B or C): 0.019 µM"
"CC[C@H](Nc1cc(C(F)F)c(-c2sc(C(=O)NC3CCC3O)nc2C(=O)N2CCC[C@@H]2C)cn1)C(F)(F)F (stereo partly drawn) [Example 375, 5-(4-(Difluoromethyl)-6-(((S)-1,1,1-trifluorobutan-2-yl)amino)pyridin-3-yl)-N-(trans-2-hydroxycyclobutyl)-4-((S)-2-methylpyrrolidine-1-carbonyl)thiazole-2-carboxamide]",5.7,,,105,0.029,
"CC(C)(C)CNc1cc(C(F)(F)F)c(-c2sc(C(=O)NCC(C)(C)O)nc2C(=O)N2C3CCC2CC3)cn1 [Example 84, 4-((1s,4s)-7-Azabicyclo[2.2.1]heptane-7-carbonyl)-N-(2-hydroxy-2-methylpropyl)-5-(6-(neopentylamino)-4-(trifluoromethyl)pyridin-3-yl)thiazole-2-carboxamide]",1.2,136* %,0.018,,,
"C[C@H]1CCCN1C(=O)c1nc(C(=O)NCC(C)(C)O)sc1-c1cnc(NCC2(C(F)(F)F)CC2)cc1C(F)F [Example 276, 5-[4-(Difluoromethyl)-6-[[1-(trifluoromethyl)cyclopropyl]methylamino]-3-pyridyl]-N-(2-hydroxy-2-methyl-propyl)-4-[(2S)-2-methylpyrrolidine-1-carbonyl]thiazole-2-carboxamide]",6.1,,,,0.016,"inhibition at 1 µM (full-length human RORγt; at 1 μM compound concentration, read-out: RORγt (FL) Reporter Assay B or C, % inhibition): 118%"
"CC(C)(O)CNC(=O)c1nc(C(=O)N2C3CCC2CC3)c(-c2cnc(NC(C3CC3)C3CC3)cc2C(F)F)s1 [Example 178, 4-((1s,4s)-7-Azabicyclo[2.2.1]heptane-7-carbonyl)-5-(6-((dicyclopropylmethyl)amino)-4-(difluoromethyl)pyridine-3-yl)-N-(2-hydroxy-2-methylpropyl)thiazole-2-carboxamide]",2,102* %,0.0055,,,

# Continued, in another order:
Kd [1] [nM],"RORγt (FL) Reporter Assay B or C, % inhibition (value marked *) (full-length human RORγt; Conditions B or C)",IC50 (full-length human RORγt; [2]) [µM],inhibition at 3 µM (full-length human RORγt; [3]) [%],IC50 (full-length human RORγt; [4]) [µM],Compound,other results
47,85* %,0.54,,,C[C@H](Nc1cc(C(F)F)c(-c2sc(C(=O)N[C@H]3C[C@H](O)C3)nc2C(=O)N2CCC[C@@H]2C)cn1)C(F)(F)F [Example 188],
1.1,,,,0.0076,"C[C@H]1CCCN1C(=O)c1nc(C(=O)NCC(C)(O)C(F)(F)F)sc1-c1cnc(NC(C)(C)C)cc1C(F)(F)F (single isomer, unassigned) [Example 359, 5-(6-(tert-Butylamino)-4-(trifluoromethyl)pyridin-3-yl)-4-((S)-2-methylpyrrolidine-1-carbonyl)-N—((R*)-3,3,3-trifluoro-2-hydroxy-2-methylpropyl)thiazole-2-carboxamide]","RORγt (FL) Reporter Assay B or C, % inhibition (full-length human RORγt; at 3 μM compound concentration): 125* %"
1.2,106* %,0.034,,,"C[C@H](O)[C@@H](C)NC(=O)c1nc(C(=O)N2CCC[C@@H]2C)c(-c2cnc(NC(C)(C)C)cc2C(F)(F)F)s1 (relative stereo) [Example 235, 5-(6-(tert-Butylamino)-4-(trifluoromethyl)pyridin-3-yl)-N-((2R*,3S*)-3-hydroxybutan-2-yl)-4-((S)-2-methylpyrrolidine-1-carbonyl)thiazole-2-carboxamide]",
96,,,107,0.26,"C[C@H]1CCCN1C(=O)c1nc(C(N)=O)sc1-c1cnc(NC(C)(C)C)cc1C(F)(F)F [Example 308, (S)-5-(6-(tert-Butylamino)-4-(trifluoromethyl)pyridin-3-yl)-4-(2-methylpyrrolidine-1-carbonyl)thiazole-2-carboxamide]",
1.3,108* %,0.017,,,"C[C@H]1CCCN1C(=O)c1nc(C(=O)NCC(C)(C)O)sc1-c1cnc(NC2(C)CCC2)cc1C(F)(F)F [Example 77, (S)—N-(2-Hydroxy-2-methylpropyl)-5-(6-((1-methylcyclobutyl)amino)-4-(trifluoromethyl)pyridin-3-yl)-4-(2-methylpyrrolidine-1-carbonyl)thiazole-2-carboxamide]",
6.1,103* %,0.019,,,"CC[C@H](Nc1cc(C(F)F)c(-c2sc(C(=O)N[C@@H]3C[C@H]3O)nc2C(=O)N2CCC[C@@H]2C)cn1)C(F)(F)F (relative stereo) [Example 213, 5-(4-(Difluoromethyl)-6-(((S)-1,1,1-trifluorobutan-2-yl)amino)pyridin-3-yl)-N-((1R*,2R*)-2-hydroxycyclopropyl)-4-((S)-2-methylpyrrolidine-1-carbonyl)thiazole-2-carboxamide]",
0.78,,,98,0.03,"C[C@H](NC(=O)c1nc(C(=O)N2CCC[C@@H]2C)c(-c2cnc(N[C@H](C3CC3)C(F)(F)F)cc2C(F)F)s1)C(C)(C)O [Example 333, 5-(6-(((R)-1-Cyclopropyl-2,2,2-trifluoroethyl)amino)-4-(difluoromethyl)pyridin-3-yl)-N—((S)-3-hydroxy-3-methylbutan-2-yl)-4-((S)-2-methylpyrrolidine-1-carbonyl)thiazole-2-carboxamide]",
4.1,112* %,0.02,,,"CC[C@H](Nc1cc(C(F)F)c(-c2sc(C(=O)N[C@@H](C)[C@@H](C)O)nc2C(=O)N2CCC[C@@H]2C)cn1)C(F)(F)F (relative stereo) [Example 219, 5-(4-(Difluoromethyl)-6-(((S)-1,1,1-trifluorobutan-2-yl)amino)pyridin-3-yl)-N-((2S*,3R*)-3-hydroxybutan-2-yl)-4-((S)-2-methylpyrrolidine-1-carbonyl)thiazole-2-carboxamide]",
